# Data taken from patent publication US9750242B2, “Nitrite salts as poisons in baits for omnivores” (priority 2007, dated 2017).
# Read-outs that look alike come from different tables or passages of the source.
# Legend:
# dingos = settings: bait delivered 1080, captive trials; cited from earlier work
# feral pigs [1] = settings: for Mean peak Met hb: approximate peak
# Description: The captive feral pig colony at Robert Wicks Pest Animal Research Centre (Queensland Department of Natural Resource, Mines and Water) was comprised of feral pigs harvested by commercial harvesters in the area surrounding Inglewood, Queensland. A variety of sexes, ages and sizes were drawn at random from the captive colony and used in these trials. Feral pigs were housed in the purpose built feral pig accommodation.
# This trial occurred in January 2006. The trial design is set out in FIG. 5. Twenty-one fasted captive feral pigs were anaesthetised with ketamine (20 mgkg^−1) and xylazine (1.2 mgkg^−1) by intramuscular injection with a 16 gauge needle into the quadriceps muscle. […] The resulting liquid was then administered by oesophageal gavage to an individual feral pig. A number of sodium nitrate dosages were trialled on different groups of feral pigs. After administration, feral pigs were observed carefully for clinical signs and death. […] Each dose rate contained three feral pigs.
# This was done on an identical manner to the placebo feral pigs.
# Feral pigs were then sampled opportunistically at various times over the following minutes or hours. […] Feral pigs which recovered from anaesthetic quickly, or were large, were sampled less frequently than other feral pigs. All feral pigs were also blood sampled immediately after death (within 1 minute). The blood samples were used to assess Methaemoglobin levels (Met […] Hb). An automated radio-oximeter (model ABL520 supplied by Radiometer Copenhagen) was used for blood Met Hb analysis. The Met Hb data from each individual within a group was pooled to provide dose response curves for multiple feral pigs administered at a single dose rate. The feral pigs which received 135 mgkg^−1 were not blood sampled until after death. A post mortem examination was conducted on all feral pigs.
# Serial Met Hb levels were pooled for each group of feral pigs receiving a single dose rate and plotted against time. Trend-lines were fitted to the data. Logarithmic functions were used for the three higher dose rates, while a polynomial trend line was fitted to the 90 mgkg^−1 feral pig group. […] This program makes few assumptions about data and consists of a range of univariate, multivariate and graphical routines for analysing matrices of samples. Specifically, ordination by multidimensional scaling (MDS) was used to visually differentiate feral pigs based on variables (time to death, peak Met haemoglobin levels, time to dyspnoea and time to vomiting). One factor was used, dose rate. Data was normalized and 30 random resets occurred. ANOSIM was used to determine whether significant differences between these variables were due to dose rate. SIMPER (a function of Primer) was used to determine dissimilarity between dose rates, or what dose rates were most dissimilar.
# feral pigs [2] = assay: Bait delivery trial: sodium nitrite to feral pigs in food; assay type: in vivo, feral pig
# Method: The trials were conducted in October 2005 and June 2006. Both trials were designed to test the hypothesis that SN would be lethal to feral pigs when they consumed the toxin freely in food. […] Before the toxin trial, each feral pig was pre-fed daily for 10 days with the bait substrate they were to receive during the toxin trial (bait or dry wheat). During the trial, six feral pigs acted as controls, receiving no toxin, but receiving bait substrate (carrier material). Three of these received wheat and three received the manufactured baits of the type described in Example 2. The remaining 18 feral pigs were divided into three groups of six animals. Three pigs in each group received 250 or 500 g (depending on body size and therefore total toxic dose to deliver) of wheat and the other three received one or two the baits (again, amount of toxin dependent). […] Feral pigs were observed every 15 minutes for 6 hours, then hourly for 6 hours, then at euthanasia 12 hours after clinical signs developed (if they remained alive). Each dose rate contained six animals divided evenly amongst two bait carrier materials. Six controls were used.
# [3] = 44.8 kg male with profuse bleeding into the thorax
# [4] = gavage, doses of 135 mgkg^-1 or above, nine feral pigs
smiles,measurement,setting,value
"O=C(O)CF [Example 1080, sodium fluoroacetate]",LD50 dose,dingos,0.11 mg/kg
"O=NO [SN, Sodium nitrite]","peak Met Hb level, individual pig",feral pigs [1]; [3],90.1%
same,"time to death after gavage, individual pig",feral pigs [1]; [3],47 min
same,post mortem abnormalities,feral pigs [1]; 90 mgkg^-1 group,no abnormalities were detected
same,"post mortem abnormalities, only consistent sign",feral pigs [1]; all animals which died following nitrite ingestion,dark or chocolate coloured blood and subsequent discolouration of organs and tissues which are well vascularised
same,Met Hb levels in surviving pigs,"feral pigs [1]; gavage 90 mg/kg, 14 hours post administration, two survivors",near zero
same,deaths of animals dosed,feral pigs [1]; gavage 90 mgkg^-1,one of three
same,period of lethargy (lessened gradually),feral pigs [1]; gavage 90 mgkg^-1,4 to 6 h
same,Death/survival,"feral pigs [1]; gavage 90 mgkg^-1, 3 feral pigs",1/2
same,time to death of one animal after dosing,"feral pigs [1]; gavage 90 mgkg^-1, following blood sampling",approximately 5 hours
same,vomiting,"feral pigs [1]; gavage 90 mgkg^-1, three hours after intoxication",two of three animals
same,Mean peak Met hb,"feral pigs [1]; gavage 90 mgkg^-1, two from three animals assessed",55^3%
same,Mean time to death,feral pigs [1]; gavage 135 mgkg^-1,115 ± 18 min
same,Death/survival,"feral pigs [1]; gavage 135 mgkg^-1, 3 feral pigs",3/0
same,Mean peak Met hb,feral pigs [1]; gavage 135 mgkg^-1,89 ± 6%
same,Mean time to death,feral pigs [1]; gavage 180 mgkg^-1,87 ± 16 min
same,Death/survival,"feral pigs [1]; gavage 180 mgkg^-1, 3 feral pigs",3/0
same,Mean peak Met hb,feral pigs [1]; gavage 180 mgkg^-1,83 ± 8%
same,Mean time to death,feral pigs [1]; gavage 180 mgkg^-1 with Na2CO3,52 ± 26 min
same,Death/survival,"feral pigs [1]; gavage 180 mgkg^-1 with Na2CO3 (30 g), 3 feral pigs",3/0
same,Mean peak Met hb,feral pigs [1]; gavage 180 mgkg^-1 with Na2CO3,80 ± 15%
same,"in-coordination, paddling and short convulsive seizures","feral pigs [1]; gavage >=135 mgkg^-1, close to time of death",two of nine animals
same,time to dyspnoea after gavage,"feral pigs [1]; gavage >=135 mgkg^-1, most animals",30 to 60 min
same,vomiting,"feral pigs [1]; gavage >=135 mgkg^-1, nine animals",Seven animals vomited between 1-4 times
same,effect on blood Met Hb values,"feral pigs [1]; gavage, all feral pigs that were sampled",rapid increases in blood Met Hb values
same,range of time to death,"feral pigs [1]; gavage, doses of 135 mgkg^-1 or above",42 to 130 min
same,deaths,feral pigs [1]; [4],All nine feral pigs that received doses of 135 mgkg^−1 or above died
same,mean time to death (S.D.),feral pigs [1]; [4],106 ± 75 min
same,mean peak Met Hb level in killed feral pigs,"feral pigs [1]; gavage, killed feral pigs",82%
same,deaths,"feral pigs [2]; 135 mgkg^-1 in bait substrate, six animals",none died
same,deaths,"feral pigs [2]; 270 mgkg^-1 consumed, five animals",one of these died
same,deaths,"feral pigs [2]; 540 mgkg^-1 consumed in either bait substrate, 2 for each substrate",4/4
same,mean time that clinical signs were displayed,feral pigs [2]; all animals,84 ± 41 min
same,mean time to death (S.D.),feral pigs [2]; all dead animals,141 ± 49 min
same,mean time that clinical signs were displayed,feral pigs [2]; animals receiving the full 540 mgkg^-1 dose,80 ± 51 min
same,mean time to death (S.D.),feral pigs [2]; animals that received the full 540 mgkg^-1 dose,122 ± 49 min
same,outcome of one animal with partial dose,feral pigs [2]; approximately 400 mgkg^-1 in wheat (370 g of 500 g eaten),still died
same,Approximate bait lethal dose,Common brushtail possum,~489 mg/kg
same,Approximate gavage lethal dose,Common brushtail possum,~163 mg/kg
same,Approximate lethal SN dose,Common brushtail possum; body size 4 kg,~2.0 gm
same,Approximate bait lethal dose,Northern brown bandicoot,~696 mg/kg
same,Approximate gavage lethal dose,Northern brown bandicoot,~232 mg/kg
same,Approximate lethal SN dose,Northern brown bandicoot; body size 2 kg,~1.4 gm
same,Approximate bait lethal dose,Pig,~310 mg/kg
same,Approximate gavage lethal dose,Pig,~103 mg/kg
same,Approximate lethal SN dose,Pig; body size 50 kg,~15.5 gm
same,Approximate bait lethal dose,Rat,~291 mg/kg
same,Approximate gavage lethal dose,Rat,~97 mg/kg
same,Approximate lethal SN dose,Rat; body size 0.1 kg,~0.03 gm
same,Approximate bait lethal dose,Raccoon,~150 mg/kg
same,Approximate lethal SN dose,Raccoon; body size 3 kg,~0.75 gm
same,Approximate bait lethal dose,Mouse,~705 mg/kg
same,Approximate gavage lethal dose,Mouse,~235 mg/kg
same,Approximate lethal SN dose,Mouse; body size 0.03 kg,~0.02 gm
"O=C([O-])[O-].[Na+].[Na+] [Sodium carbonate, sodium carbonate, reference compound]",synergism with SN (Met Hb curves),"feral pigs [1]; 30 g sodium carbonate followed by 180 mgkg^-1 SN, gavage",did not appear to act as a synergist
